This note sets out measurements from US20190231751A1, “TREATMENT OF FIBROTIC DISORDERS WITH JUN N-TERMINAL KINASE INHIBITORS” (Imago Pharmaceuticals, Inc., priority 2016, published 2019).

Series [1] has as its system thioacetamide-induced liver fibrosis. The experiment in a line: Thioacetamide-induced rat model of liver fibrosis. The series is classed as in vivo. Particulars: 10 mg/kg/day p.o. The procedure:
The antifibrotic effects of IGP001 and IGP002 are also evaluated in a thioacetamide-induced rat model of liver fibrosis. Study assessments include body and liver/kidney weight, liver function test, liver/kidney morphology and collagen deposition, fibrogenic gene and protein expression, and pharmacokinetic analyses.

Series [2] concerns SMAD2. The experiment in a line: TGF-β1-induced SMAD2 phosphorylation in HFL-1 cells (Western blot). Particulars: TGF-β1 1 ng/ml. The series is classed as cell-based, human. The procedure:
TGF-β1 factors initiate signaling by assembling receptor complexes that activate SMAD proteins. IGP001 and IGP002 are tested for their ability to suppress TGF-031 induction of SMAD signaling pathway by detecting the dually phosphorylated (Ser 465/Ser 467) form of SMAD2 by Western blotting against specific anti-phosphokinase antibody.
HFL-1 cells are created as described above in Example 3. HFL-1 cells are cultured with 0.1% DMSO (control vehicle), IGP001 or IGP002 for 30 min before stimulation with TGF-β1 (1 ng/ml) for 4 hours. Total RNA is extracted and hybridized with human CTGF probes, and messenger RNA levels are quantified by densitometry and optical density of CTGF mRNA band was corrected for G3PDH, and results are expressed as ratio (%) of control value (TGF-β1-stimulated HFL-1 cells).
Phosphorylation of SMAD2 following treatment with IGP001 or IGP002 are also determined by Western blotting whole cell lysates using an antibody specific for phosphorylated forms of SMAD2.
For orientation: In western blotting, separated proteins are transferred to a membrane and probed.

Series [3] deals with monocyte/macrophage recruitment. Put plainly: Monocyte/macrophage recruitment in vivo (Example 9). Particulars: 10 mg/kg/day p.o.; model not specified.
Series [4] in a line: Rat PK/PD study: plasma compound levels by LC/MS. The class given is in vivo. Particulars: female Wistar rats; kainic acid 60 minutes after compound; blood 4 hours post kainic acid. The procedure: Plasma compound levels for two of the JNK inhibitors, IGP001 (Formula (XXI)) and IGP002 (Formula (XXII)), were obtained using a rat model for pharmaceutical administration of the compounds. Female Wistar rats, 7-9 weeks old, were obtained (SLAC Laboratory Animal Co. Ltd., Shanghai, China), and three groups of animals (n=3 each) received 1) kainic acid and 2) either IGP001 in vehicle, IGP002 in vehicle, or vehicle alone. The animals received the kainic acid 60 minutes after they received the IGP001 in vehicle, IGP002 in vehicle, and or vehicle alone.
For administration, the kainic acid was dissolved in saline, and introduced to the rats using the protocol as generally disclosed in Tse K, Puttachary S, Beamer E, Sills G J, Thippeswamy T (2014) PLoS One 9:e96622. Animals in each group were surgically implanted with catheters in carotid artery using polyurethane tubing and heparin (50 IU/mL)/glucose (50%) solutions as the lumen lock solution. Anaesthetic barbital was used during the surgery. The animals were allowed to recover seven days after surgery.
The animals were euthanized 4 hours post kainic acid administration using CO2 inhalation and blood was collected via cardiac puncture. 5 mL blood was transferred into pre-labled plastic microcentrifuge tubes containing K2-EDTA (0.5M) as anti-coagulant. Plasma levels were determined by a validated LC/MS analysis.

The subject of series [5] is c-Jun phosphorylation at serine 63. Put plainly: ELISA of c-Jun phosphorylation in PBMC of treated rats. The class given is in vivo, rat. Particulars: 10 and 30 mg/kg; kainic acid treated rats. On the procedure:
Blood from the animals treated with kainic acid as per Example 1 above was processed for the characterization of peripheral blood mononuclear cells (PBMC) from the treated animals. Briefly, the final blood samples from the exsanguinated rats were immediately centrifuged at 3,000 g for 10 minutes at 4° C. The plasma in upper layer was removed, and the remaining portion used for the isolation of the PBMC.
The buffy coat of PBMCs at the erythrocyte-plasma interface and the top red cell layer were collected into a 15 mL falcon tube containing 3 ml chilled PBS. The sample was resuspended and transferred to other 15 mL falcon tubes containing 6 ml Ficoll-Paque plus density gradient, and centrifuged at 18° C. for 10 minutes at 800 g. […] The middle ‘cloudy’ interface layer between plasma and Ficoll containing the PBMCs was transferred to a 15 mL tube, washed with 10 mL of cold PBS (4° C., 1×PBS), and centrifuged for 5 min at 4° C. at 1000 g. The supernatant was discarded.
The isolated PBMC were subjected to an ELISA assay using a kit for the detection of c-Jun phosphorylation at serine 63. Detection of phospho-Jun was carried out for the PMBCs of each kainic acid administered rat group: those receiving IGP001 in vehicle, those receiving IGP002 in vehicle, or those receiving vehicle alone.

The test system of series [6] is transgenic SREBP-1c model of NASH. The experiment in a line: Transgenic SREBP-1c model of NASH. The class given is in vivo, mice. Particulars: 10 mg/kg/day p.o. On the procedure:
The ability of IGP001 and IGP002 are tested in the transgenic SREBP-1c model of NASH. SREBP-1c is a lipogenic transcription factor, and overexpression creates a model of congenital lipodystrophy in which severe insulin resistance and diabetes develop secondary to impaired adipose differentiation (Shimomura I et al., Genes Dev 1998; 12: 3182-3194). In these mice, decreased fat tissue with lipid accumulation in the liver is observed, and marked hepatic steatosis occurs by […] of age. When fed a standard diet, steatosis, lobular inflammation, and perivenular and pericellular fibrosis develop at 20 weeks (Nakayama H, et al., Metabolism 2007; 56: 470-475; Takahashi Y, World J Gastroenterol. 2012 May 21; 18(19): 2300-2308).

As for `O=C(Cn1c(=O)ccc2cc(C(F)(F)F)ccc21)Nc1scc(Br)c1-c1nnc[nH]1` [IGP001, N-(4-bromo-3-(1H-1,2,4-triazol-5-yl)thiophen-2-yl)-2-(2-oxo-6-(trifluoromethyl)quinolin-1(2H)-yl)acetamide], the “non-alcoholic fatty liver disease activity score” value in series [1] (thioacetamide-induced NASH model) is “significantly reduce the non-alcoholic fatty liver disease activity score”. In addition, in series [1] (thioacetamide-induced model), the collagen deposition entry is “significant reductions in collagen deposition”; the “collagen type 1 protein and mRNA expression” value is “significant reductions in collagen deposition, and collagen type 1 protein and mRNA expression”. Also, the “amounts of phosphorylated SMAD2” value in series [2] is listed as “significantly increase”. The “monocyte/macrophage recruitment in vivo” value in series [3] was “significantly reduce monocyte/macrophage recruitment”. In addition, the “plasma compound levels versus cellular EC50” value in series [4] is “sufficient compound in the plasma of treated animals to exceed cellular EC50 in the periphery”. In addition, in series [5], the “c-Jun phosphorylation in PBMC” value is listed as “decrease in c-Jun phosphorylation”. For the same compound, in series [6], the collagen deposition result was “significant reductions in collagen deposition”; the “collagen type 1 protein and mRNA expression” value was “significant reductions in collagen deposition, and collagen type 1 protein and mRNA expression”.
